Source: ChEMBL document CHEMBL1201862, “PubChem BioAssay data set” (2004)
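These data come from cells grown in 96-well plates and exposed to compound for 48 hours at five concentrations. Here, GI50 denotes the concentration required for 50% inhibition of growth.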 Active and inactive are the calls of the source. Cut-off read from the data, not from the text of the source: active = GI50 up to about 1.1 µM and inactive = higher.

Experiments:
Test in all cases: growth of human tumour cells (NCI), 48 h
786-0 = system: 786-0
A498 = system: A498
A549 = system: A549
ACHN = system: ACHN
BT-549 = system: BT-549
CAKI-1 = system: CAKI-1
CCRF-CEM = system: CCRF-CEM
COLO 205 = system: COLO 205
DU-145 = system: DU-145
EKVX = system: EKVX
HCC 2998 = system: HCC 2998
HCT-116 = system: HCT-116
HCT-15 = system: HCT-15
HL-60 = system: HL-60
HOP-62 = system: HOP-62
HOP-92 = system: HOP-92
HT-29 = system: HT-29
Hs-578T = system: Hs-578T
IGROV-1 = system: IGROV-1
K562 = system: K562
KM12 = system: KM12
LOX IMVI = system: LOX IMVI
M14 = system: M14
MCF7 = system: MCF7
MDA-MB-231 = system: MDA-MB-231
MDA-MB-435 = system: MDA-MB-435
MDA-N = system: MDA-N
MOLT-4 = system: MOLT-4
Malme-3M = system: Malme-3M
NCI-H226 = system: NCI-H226
NCI-H23 = system: NCI-H23
NCI-H460 = system: NCI-H460
NCI-H522 = system: NCI-H522
NCI/ADR-RES = system: NCI/ADR-RES
OVCAR-3 = system: OVCAR-3
OVCAR-4 = system: OVCAR-4
OVCAR-5 = system: OVCAR-5
OVCAR-8 = system: OVCAR-8
PC-3 = system: PC-3
RPMI-8226 = system: RPMI-8226
RXF 393 = system: RXF 393
SF-295 = system: SF-295
SF-539 = system: SF-539
SK-MEL-28 = system: SK-MEL-28
SK-MEL-2 = system: SK-MEL-2
SK-MEL-5 = system: SK-MEL-5
SK-OV-3 = system: SK-OV-3
SN12C = system: SN12C
SNB-19 = system: SNB-19
SNB-75 = system: SNB-75
SR = system: SR
SW-620 = system: SW-620
T47D = system: T47D
TK-10 = system: TK-10
U-251 = system: U-251
UACC-62 = system: UACC-62
UO-31 = system: UO-31
SF-268 = system: SF-268
UACC-257 = system: UACC-257

Measured: GI50

CC1(C)Oc2ccc(NC(=O)CCC(N)C(=O)O)cc2O1 (centres undefined)
> 100 µM: HCT-15
inactive: 786-0 > 100 µM | A498 > 100 µM | A549 > 100 µM | ACHN > 100 µM | BT-549 > 100 µM | CAKI-1 > 100 µM | CCRF-CEM > 100 µM | COLO 205 > 100 µM | DU-145 > 100 µM | EKVX > 100 µM | HCC 2998 > 100 µM | HCT-116 > 100 µM | HL-60 > 100 µM | HOP-62 > 100 µM | HOP-92 > 100 µM | HT-29 > 100 µM | Hs-578T > 100 µM | IGROV-1 > 100 µM | K562 > 100 µM | KM12 > 100 µM | LOX IMVI > 100 µM | M14 > 100 µM | MCF7 > 100 µM | MDA-MB-231 > 100 µM | MDA-MB-435 > 100 µM | MDA-N > 100 µM | MOLT-4 > 100 µM | Malme-3M > 100 µM | NCI-H226 > 100 µM | NCI-H23 > 100 µM | NCI-H460 > 100 µM | NCI-H522 > 100 µM | NCI/ADR-RES > 100 µM | OVCAR-3 > 100 µM | OVCAR-4 > 100 µM | OVCAR-5 > 100 µM | OVCAR-8 > 100 µM | PC-3 > 100 µM | RPMI-8226 > 100 µM | RXF 393 > 100 µM | SF-295 > 100 µM | SF-539 > 100 µM | SK-MEL-28 > 100 µM | SK-MEL-2 > 100 µM | SK-MEL-5 > 100 µM | SK-OV-3 > 100 µM | SN12C > 100 µM | SNB-19 > 100 µM | SNB-75 > 100 µM | SR > 100 µM | SW-620 > 100 µM | T47D > 100 µM | TK-10 > 100 µM | U-251 > 100 µM | UACC-62 > 100 µM | UO-31 > 100 µM

COC(=O)C(C)(NC(=O)C(CC(=O)OC(C)(C)C)NC(=O)OC(C)(C)C)c1ccccc1 (centres undefined)
> 100 µM: HCT-15
inactive: 786-0 > 100 µM | A498 54.3 µM | A549 > 100 µM | ACHN > 100 µM | BT-549 > 100 µM | CAKI-1 > 100 µM | CCRF-CEM > 100 µM | COLO 205 > 100 µM | DU-145 > 100 µM | EKVX > 100 µM | HCC 2998 > 100 µM | HCT-116 > 100 µM | HL-60 81.7 µM | HOP-62 > 100 µM | HOP-92 63 µM | HT-29 > 100 µM | Hs-578T > 100 µM | IGROV-1 > 100 µM | K562 > 100 µM | KM12 > 100 µM | LOX IMVI > 100 µM | M14 > 100 µM | MCF7 62.1 µM | MDA-MB-231 > 100 µM | MDA-MB-435 > 100 µM | MDA-N > 100 µM | MOLT-4 > 100 µM | Malme-3M 40 µM | NCI-H226 > 100 µM | NCI-H23 > 100 µM | NCI-H460 85.7 µM | NCI-H522 > 100 µM | NCI/ADR-RES 55.1 µM | OVCAR-3 49.8 µM | OVCAR-5 > 100 µM | OVCAR-8 > 100 µM | PC-3 > 100 µM | RPMI-8226 72.8 µM | RXF 393 > 100 µM | SF-268 7.19 µM | SF-295 81.8 µM | SF-539 > 100 µM | SK-MEL-28 > 100 µM | SK-MEL-5 68.4 µM | SK-OV-3 > 100 µM | SN12C > 100 µM | SNB-19 > 100 µM | SNB-75 8.13 µM | SR 73.5 µM | SW-620 > 100 µM | T47D 35.4 µM | TK-10 > 100 µM | U-251 > 100 µM | UACC-257 > 100 µM | UACC-62 > 100 µM | UO-31 26.5 µM
